Key:
[1] = Oral bioavailability in rat at 0.5 mg/kg; format: ADME, organism-based; settings: in vivo
[2] = target: Nuclear receptor subfamily 1 group I member 2 (Homo sapiens, UniProt O75469); assay: Inhibition of PXR (unknown origin)
[3] = target: Serine/threonine-protein kinase BRSK1 (Homo sapiens, UniProt Q8TDC3); assay: Inhibition of recombinant GST-tagged human BRSK1 expressed in baculovirus expression system using Ser/Thr-21 as substrate after 1 hr in presence of ATP by Z'-LYTE assay
[4] = target: Tyrosine-protein kinase Blk (Homo sapiens, UniProt P51451); assay: Inhibition of recombinant full length human His-tagged BLK cytoplasmic domain expressed in baculovirus expression system using tyrosine-1 peptide as substrate incubated for 60 mins in presence of ATP by Z'-LYTE assay
Sequence of Tyrosine-protein kinase Blk (P51451 whole entry, the tested form may be a part): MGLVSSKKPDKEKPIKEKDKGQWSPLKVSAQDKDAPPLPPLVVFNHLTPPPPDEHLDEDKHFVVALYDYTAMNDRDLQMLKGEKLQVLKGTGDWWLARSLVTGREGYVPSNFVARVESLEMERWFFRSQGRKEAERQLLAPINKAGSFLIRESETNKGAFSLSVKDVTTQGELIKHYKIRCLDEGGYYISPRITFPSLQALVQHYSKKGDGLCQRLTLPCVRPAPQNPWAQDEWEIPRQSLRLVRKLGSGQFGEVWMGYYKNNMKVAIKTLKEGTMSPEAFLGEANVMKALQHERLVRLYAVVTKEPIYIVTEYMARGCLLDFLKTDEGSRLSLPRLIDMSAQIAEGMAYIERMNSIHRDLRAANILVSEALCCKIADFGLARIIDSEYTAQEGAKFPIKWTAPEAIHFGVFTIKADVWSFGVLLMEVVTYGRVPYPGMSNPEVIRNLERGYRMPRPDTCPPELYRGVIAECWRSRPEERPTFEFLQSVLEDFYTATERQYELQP

[5] = target: Tyrosine-protein kinase HCK (Homo sapiens, UniProt P08631); assay: Inhibition of recombinant full length N-terminal GST-tagged human HCK expressed in baculovirus expression system using Tyr 02 as substrate after 1 hr in presence of ATP by Z'-LYTE assay
Sequence of Tyrosine-protein kinase HCK (P08631 whole entry): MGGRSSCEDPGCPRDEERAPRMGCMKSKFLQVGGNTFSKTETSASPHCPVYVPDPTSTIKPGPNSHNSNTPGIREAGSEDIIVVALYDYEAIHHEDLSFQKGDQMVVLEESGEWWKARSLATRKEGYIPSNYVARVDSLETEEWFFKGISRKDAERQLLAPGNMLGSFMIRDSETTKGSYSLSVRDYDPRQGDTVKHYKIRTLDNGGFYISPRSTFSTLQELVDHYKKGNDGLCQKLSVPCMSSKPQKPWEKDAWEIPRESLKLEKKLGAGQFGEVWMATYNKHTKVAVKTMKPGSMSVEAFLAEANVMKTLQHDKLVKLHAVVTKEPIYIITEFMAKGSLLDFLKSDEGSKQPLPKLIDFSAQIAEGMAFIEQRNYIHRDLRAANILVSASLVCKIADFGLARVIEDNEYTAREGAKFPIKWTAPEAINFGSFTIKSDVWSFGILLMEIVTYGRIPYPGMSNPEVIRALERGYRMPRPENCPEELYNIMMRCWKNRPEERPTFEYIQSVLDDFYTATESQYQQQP

[6] = target: Sodium-dependent noradrenaline transporter (Homo sapiens) (UniProt P23975); assay: Displacement of [125I]RTI-55 from full length recombinant human NET expressed in MDCK cells at 10 uM after 3 hrs by radiometric scintillation analysis relative to control; format: cell-based
[7] = target: Sodium-dependent serotonin transporter (Homo sapiens) (UniProt P31645); assay: Displacement of [3H]paroxetine from full length recombinant human […] expressed in HEK293 cells at 10 uM after 60 mins by radiometric scintillation analysis relative to control; format: cell-based
Rattus norvegicus = organism: Rattus norvegicus; assay: Displacement of [3H]GABA from Wistar rat brain GABA at 10 uM after 20 mins by radiometric scintillation analysis relative to control
[8] = target: 5-hydroxytryptamine receptor 6 (Homo sapiens) (UniProt P50406); assay: Displacement of [3H] lysergic acid diethylamide from full length human recombinant 5HT6 receptor expressed in HeLa/E6-7 cells at 10 uM measured after 120 mins by radiometric scintillation analysis relative to control; format: cell-based
[9] = target: 5-hydroxytryptamine receptor 1B (Rattus norvegicus) (UniProt P28564); assay: Displacement of [125I]cyanopindolol from 5HT1B receptor in Wistar rat cerebral cortical membranes at 10 uM measured after 90 mins by radiometric scintillation analysis relative to control
[10] = target: Muscarinic acetylcholine receptor M2 (Homo sapiens) (UniProt P08172); assay: Displacement of [3H]N-Methylscopolamine from full length human recombinant Muscarinic M2 receptor expressed in CHOK1 cells at 10 uM measured after 120 mins by radiometric scintillation analysis relative to control; format: cell-based; settings: CHO-K1
[11] = target: Muscarinic acetylcholine receptor M1 (Homo sapiens) (UniProt P11229); assay: Displacement of [3H]N-Methylscopolamine from full length human recombinant Muscarinic M1 receptor expressed in CHOK1 cells at 10 uM measured after 120 mins by radiometric scintillation analysis relative to control; format: cell-based; settings: CHO-K1
[12] = target: Alpha-1B adrenergic receptor (Rattus norvegicus) (UniProt P15823); assay: Displacement of [3H]prazosin from alpha1b adrenergic receptor in Wistar rat liver membranes at 10 uM measured after 60 mins by scintillation counting method relative to control; format: cell membranes; settings: Membrane
Ephrin type-A receptor 4 = Ephrin type-A receptor 4 (Homo sapiens, UniProt P54764); assay: Inhibition of recombinant human GST-tagged EPHA4 cytoplasmic domain expressed in baculovirus expression system using tyrosine-02 peptide as substrate incubated for 60 mins in presence of ATP by Z'-Lyte assay
Ephrin type-B receptor 3 = Ephrin type-B receptor 3 (Homo sapiens, UniProt P54753); assay: Inhibition of recombinant human GST-tagged EPHB3 catalytic domain expressed in baculovirus expression system using tyrosine-2 peptide as substrate incubated for 60 mins in presence of ATP by Z'-LYTE assay
Sequence of Ephrin type-B receptor 3 (P54753 whole entry, the tested form may be a part): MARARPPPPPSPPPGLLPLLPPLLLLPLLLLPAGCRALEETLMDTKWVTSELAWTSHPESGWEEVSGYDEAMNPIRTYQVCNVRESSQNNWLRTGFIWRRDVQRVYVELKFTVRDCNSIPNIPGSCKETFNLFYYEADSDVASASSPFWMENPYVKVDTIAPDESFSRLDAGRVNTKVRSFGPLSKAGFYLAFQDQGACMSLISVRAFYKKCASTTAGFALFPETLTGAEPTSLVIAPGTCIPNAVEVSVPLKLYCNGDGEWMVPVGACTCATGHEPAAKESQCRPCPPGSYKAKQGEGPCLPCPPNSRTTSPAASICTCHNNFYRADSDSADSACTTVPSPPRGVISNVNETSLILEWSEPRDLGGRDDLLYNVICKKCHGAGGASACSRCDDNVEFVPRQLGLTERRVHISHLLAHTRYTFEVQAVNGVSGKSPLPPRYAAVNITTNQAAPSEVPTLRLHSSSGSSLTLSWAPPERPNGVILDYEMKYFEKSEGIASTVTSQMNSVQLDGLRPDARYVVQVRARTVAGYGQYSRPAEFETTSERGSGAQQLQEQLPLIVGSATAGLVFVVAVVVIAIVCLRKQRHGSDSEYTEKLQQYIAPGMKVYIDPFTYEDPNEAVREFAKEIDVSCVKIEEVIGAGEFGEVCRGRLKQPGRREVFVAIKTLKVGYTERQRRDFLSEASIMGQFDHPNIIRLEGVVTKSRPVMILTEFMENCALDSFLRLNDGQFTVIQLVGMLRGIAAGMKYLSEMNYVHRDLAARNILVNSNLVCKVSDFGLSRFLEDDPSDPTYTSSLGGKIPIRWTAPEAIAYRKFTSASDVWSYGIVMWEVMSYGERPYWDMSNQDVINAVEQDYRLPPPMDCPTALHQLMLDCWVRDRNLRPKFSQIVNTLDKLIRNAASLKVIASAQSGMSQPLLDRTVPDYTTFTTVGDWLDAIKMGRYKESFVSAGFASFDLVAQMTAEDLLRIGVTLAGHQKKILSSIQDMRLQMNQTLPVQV

[13] = target: Tyrosine-protein kinase Fer (Homo sapiens, UniProt P16591); assay: Inhibition of recombinant GST-tagged human FER (541 to 822 residues) cytoplasmic domain expressed in baculovirus expression system using Tyr 05 peptide as substrate after 1 hr in presence of ATP by Z'-LYTE assay
[14] = target: Fibroblast growth factor receptor 3 (Homo sapiens, UniProt P22607, K650E); assay: Inhibition of recombinant N-terminal His-tagged human FGFR3 K650E mutant (398 to 806 residues) cytoplasmic domain expressed in baculovirus expression system using Tyr 04 peptide as substrate after 1 hr in presence of ATP by Z'-LYTE assay
[15] = target: Homeodomain-interacting protein kinase 2 (Homo sapiens, UniProt Q9H2X6); assay: Inhibition of recombinant human GST-tagged HIPK2 expressed in baculovirus expression system using serine/threonine-9 peptide as substrate incubated for 60 mins in presence of ATP by Z'-LYTE assay
Sequence of Homeodomain-interacting protein kinase 2 (Q9H2X6 whole entry): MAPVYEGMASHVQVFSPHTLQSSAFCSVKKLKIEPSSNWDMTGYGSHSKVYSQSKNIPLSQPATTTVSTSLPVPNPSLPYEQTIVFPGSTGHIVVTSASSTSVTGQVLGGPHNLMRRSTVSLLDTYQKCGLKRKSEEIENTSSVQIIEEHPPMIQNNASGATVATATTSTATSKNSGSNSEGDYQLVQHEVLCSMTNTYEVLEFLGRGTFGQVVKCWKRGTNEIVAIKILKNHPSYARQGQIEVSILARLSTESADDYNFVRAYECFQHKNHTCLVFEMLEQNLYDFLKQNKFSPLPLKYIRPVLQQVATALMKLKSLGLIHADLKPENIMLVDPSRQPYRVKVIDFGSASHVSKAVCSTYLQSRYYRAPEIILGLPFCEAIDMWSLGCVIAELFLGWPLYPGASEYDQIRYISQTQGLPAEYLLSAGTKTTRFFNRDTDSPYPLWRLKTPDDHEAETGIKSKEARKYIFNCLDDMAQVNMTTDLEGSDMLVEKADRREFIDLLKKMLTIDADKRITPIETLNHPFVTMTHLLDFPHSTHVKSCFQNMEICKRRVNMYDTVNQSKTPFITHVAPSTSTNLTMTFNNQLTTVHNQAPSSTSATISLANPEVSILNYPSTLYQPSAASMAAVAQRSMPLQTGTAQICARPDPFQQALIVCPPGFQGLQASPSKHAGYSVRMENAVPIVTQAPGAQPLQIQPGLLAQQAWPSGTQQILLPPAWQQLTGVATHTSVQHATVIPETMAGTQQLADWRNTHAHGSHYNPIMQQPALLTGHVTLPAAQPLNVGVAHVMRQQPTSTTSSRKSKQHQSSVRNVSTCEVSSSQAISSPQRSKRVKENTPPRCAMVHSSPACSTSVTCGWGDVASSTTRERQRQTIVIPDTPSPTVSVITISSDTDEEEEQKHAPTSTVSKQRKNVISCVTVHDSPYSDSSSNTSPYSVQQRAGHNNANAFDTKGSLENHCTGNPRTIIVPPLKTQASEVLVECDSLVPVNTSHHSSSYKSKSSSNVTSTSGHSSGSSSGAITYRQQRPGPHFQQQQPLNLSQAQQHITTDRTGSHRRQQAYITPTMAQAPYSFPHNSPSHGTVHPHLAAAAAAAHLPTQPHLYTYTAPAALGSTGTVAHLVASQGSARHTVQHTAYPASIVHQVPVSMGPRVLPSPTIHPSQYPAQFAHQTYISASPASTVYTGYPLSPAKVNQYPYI

[16] = target: Mitogen-activated protein kinase 11 (Homo sapiens, UniProt Q15759); assay: Inhibition of recombinant full length human His-tagged p38beta expressed in baculovirus expression system using serine/threonine-15 peptide as substrate incubated for 60 mins in presence of ATP by Z'-LYTE assay
[17] = target: Mitogen-activated protein kinase 3 (Homo sapiens, UniProt P27361); assay: Inhibition of recombinant full length human GST-tagged ERK1 expressed in Escherichia coli using fluorophore-labeled serine/threonine-3 peptide as substrate incubated for 60 mins in presence of ATP by Z'-LYTE assay
[18] = target: MAP/microtubule affinity-regulating kinase 3 (Homo sapiens, UniProt P27448); assay: Inhibition of recombinant full length human GST-tagged MARK3 expressed in baculovirus expression system using serine/threonine-25 peptide as substrate incubated for 60 mins in presence of ATP by Z'-LYTE assay
[19] = target: MAP/microtubule affinity-regulating kinase 4 (Homo sapiens, UniProt Q96L34); assay: Inhibition of recombinant full length human GST-tagged MARK4 expressed in baculovirus expression system using serine/threonine-25 peptide as substrate incubated for 60 mins in presence of ATP by Z'-LYTE assay
[20] = target: Platelet-derived growth factor receptor alpha (Homo sapiens, UniProt P16234, T674I); assay: Inhibition of recombinant human GST-tagged PDGFRalpha cytoplasmic domain (550 to 1089 residues) harboring T674I mutant expressed in baculovirus expression system using tyrosine-4 peptide as substrate incubated for 60 mins in presence of ATP by Z'-LYTE assay
[21] = target: Ribosomal protein S6 kinase alpha-6 (Homo sapiens, UniProt Q9UK32); assay: Inhibition of recombinant full length human N-terminal GST-tagged RPS6KA6 expressed in baculovirus expression system using ser/Thr20 peptide as substrate incubated for 60 mins in presence of ATP by Z'-LYTE assay
[22] = target: Tyrosine-protein kinase Srms (Homo sapiens, UniProt Q9H3Y6); assay: Inhibition of recombinant full length human GST-tagged SRM expressed in baculovirus expression system using tyrosine-1 peptide as substrate incubated for 60 mins in presence of ATP by Z'-LYTE assay
[23] = target: Serine/threonine-protein kinase TAO2 (Homo sapiens, UniProt Q9UL54); assay: Inhibition of recombinant human GST-tagged TAO2 catalytic domain (1 to 314 residues) expressed in baculovirus expression system using serine/threonine-7 peptide as substrate incubated for 60 mins in presence of ATP by Z'-LYTE assay
Sequence of Serine/threonine-protein kinase TAO2 (Q9UL54 whole entry, the tested form may be a part): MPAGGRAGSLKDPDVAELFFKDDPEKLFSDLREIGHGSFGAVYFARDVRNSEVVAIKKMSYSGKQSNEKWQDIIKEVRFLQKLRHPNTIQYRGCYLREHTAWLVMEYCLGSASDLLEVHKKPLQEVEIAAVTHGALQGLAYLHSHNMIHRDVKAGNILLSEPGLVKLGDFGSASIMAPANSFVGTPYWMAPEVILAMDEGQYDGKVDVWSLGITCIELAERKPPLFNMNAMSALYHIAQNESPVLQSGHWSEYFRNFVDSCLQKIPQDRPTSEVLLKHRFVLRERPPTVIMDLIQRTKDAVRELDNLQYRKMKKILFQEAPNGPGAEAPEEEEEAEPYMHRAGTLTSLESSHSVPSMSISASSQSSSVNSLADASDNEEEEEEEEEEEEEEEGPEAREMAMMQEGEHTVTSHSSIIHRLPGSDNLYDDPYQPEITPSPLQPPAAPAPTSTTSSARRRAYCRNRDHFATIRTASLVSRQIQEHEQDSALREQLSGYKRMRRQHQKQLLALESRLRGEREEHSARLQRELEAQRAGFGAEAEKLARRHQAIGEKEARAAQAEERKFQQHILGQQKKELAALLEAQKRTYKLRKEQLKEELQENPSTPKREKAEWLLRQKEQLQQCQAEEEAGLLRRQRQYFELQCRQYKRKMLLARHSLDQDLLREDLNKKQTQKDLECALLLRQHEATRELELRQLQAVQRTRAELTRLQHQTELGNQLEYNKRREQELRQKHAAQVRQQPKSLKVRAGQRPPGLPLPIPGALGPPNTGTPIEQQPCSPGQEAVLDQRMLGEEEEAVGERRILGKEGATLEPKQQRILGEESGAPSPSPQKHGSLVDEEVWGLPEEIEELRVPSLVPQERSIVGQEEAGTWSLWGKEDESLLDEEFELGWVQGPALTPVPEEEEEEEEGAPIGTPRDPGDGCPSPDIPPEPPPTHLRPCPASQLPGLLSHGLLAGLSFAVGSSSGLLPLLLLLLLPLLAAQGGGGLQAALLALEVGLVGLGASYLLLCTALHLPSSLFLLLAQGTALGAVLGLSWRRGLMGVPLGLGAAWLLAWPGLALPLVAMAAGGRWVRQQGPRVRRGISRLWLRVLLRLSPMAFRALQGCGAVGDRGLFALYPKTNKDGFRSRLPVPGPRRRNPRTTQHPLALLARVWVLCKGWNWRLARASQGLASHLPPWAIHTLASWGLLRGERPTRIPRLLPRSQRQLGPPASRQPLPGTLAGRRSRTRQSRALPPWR

Sequence of Nuclear receptor subfamily 1 group I member 2 (O75469 whole entry): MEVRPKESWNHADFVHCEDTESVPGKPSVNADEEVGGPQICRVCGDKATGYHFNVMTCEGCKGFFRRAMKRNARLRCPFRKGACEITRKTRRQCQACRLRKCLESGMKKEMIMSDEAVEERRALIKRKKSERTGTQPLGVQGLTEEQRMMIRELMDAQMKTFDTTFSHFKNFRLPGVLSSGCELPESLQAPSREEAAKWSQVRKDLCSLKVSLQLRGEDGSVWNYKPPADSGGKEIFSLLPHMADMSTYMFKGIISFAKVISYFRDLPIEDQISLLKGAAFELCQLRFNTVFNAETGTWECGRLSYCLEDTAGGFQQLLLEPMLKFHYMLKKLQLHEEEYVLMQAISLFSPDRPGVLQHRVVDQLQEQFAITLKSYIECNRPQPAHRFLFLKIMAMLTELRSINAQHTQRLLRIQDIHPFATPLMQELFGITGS

**Q.** What does the source list for C[C@@H]1C[C@H]1C(=O)N1CCN(c2cnc(C#N)c(-c3cnn(C)c3)n2)C[C@H]1C?
**A.** bioavailability [1]: 79%; EC50 [2]: > 30 µM; IC50 [3]: > 100 µM; IC50 [4]: > 100 µM; IC50 [5]: 37.6 µM; inhibition [6]: 3%; inhibition [7]: 0%; inhibition (Rattus norvegicus): 18%; inhibition [8]: 7%; inhibition [9]: -5%; inhibition [10]: 1%; inhibition [11]: -3%; inhibition [12]: -1%; IC50 (Ephrin type-A receptor 4): > 100 µM; IC50 (Ephrin type-B receptor 3): > 100 µM; IC50 [13]: > 100 µM; IC50 [14]: > 100 µM; IC50 [15]: > 100 µM; IC50 [16]: > 100 µM; IC50 [17]: > 100 µM; IC50 [18]: > 100 µM; IC50 [19]: > 100 µM; IC50 [20]: > 100 µM; IC50 [21]: > 100 µM; IC50 [22]: > 100 µM; IC50 [23]: > 100 µM

— ChEMBL document CHEMBL4602617, “Discovery and optimization of heteroaryl piperazines as potent and selective PI3Kδ inhibitors” (Bioorg Med Chem Lett, 2020)
